The text below walks through data of PubChem BioAssay (NCI).

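How tested: cells in 96-well plates exposed to compound for 48 hours at five concentrations. Abbreviation: GI50, concentration required for 50% inhibition of growth. TGI is the concentration that stops growth completely.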 Where only a bound is given, the exact number is not on record here.

Common to all, as to assay: growth of human tumour cells (NCI), 48 h
Assay [1] has as its system NCI-H522 lung.
Assay [2] has as its system HCT-15 colon.
The subject of assay [3] is SW-620 colon.
For assay [4], the system named is DU-145 prostate.
For assay [5], the system named is SN12C renal.
The test system of assay [6] is RXF 393 renal.
The test system of assay [7] is SK-OV-3 ovarian.
The subject of assay [8] is UO-31 renal.
In assay [9] the test system is CCRF-CEM leukemia.
Assay [10] relates to MDA-MB-231 breast.

As to `CC1(C)CC2CC(C)(CN2c2ncnc3ccc(Br)cc23)C1` (configuration not stated), the GI50 is 13 µM in [1]; 15.5 µM in assay [2]; 15 µM in [3]; 12.4 µM in assay [4]; 10.3 µM in assay [5]; 11 µM in assay [6]. The GI50 is 16.8 µM in assay [7], 14 µM in [8], 6.61 µM in assay [9] and 2 µM in assay [10]. The TGI in assay [1] was found to be 29.3 µM; in [2] it was 28.9 µM; in assay [3], 30.7 µM; in assay [4] it was 24.9 µM; in assay [5], 21.9 µM; in assay [6] it was 23.6 µM. Besides, the TGI in assay [7] was determined as 31.2 µM; in assay [8], 56.1 µM; in assay [9], 39.8 µM; in assay [10], 12.4 µM.

Take `O=C(CC1(O)C(=O)Nc2c(Cl)ccc(Cl)c21)c1ccc(C2CC2)cc1` (configuration not stated): the GI50 is 0.43 µM in assay [1]; 0.185 µM in assay [2]; 0.29 µM in assay [3]; 1.63 µM in assay [4]; 2.66 µM in [5]; 0.632 µM in assay [6]. Besides, the GI50 in assay [7] is 1.33 µM; in [8], 1.58 µM; in [9] it was 0.843 µM; in assay [10], 2.64 µM. Further, the TGI in assay [1] stood at 1.9 µM; in [2], 14.3 µM; in assay [3], 13 µM; in assay [4] it was 17.8 µM; in assay [5] it was 20.4 µM; in assay [6], 2.64 µM. In addition, the TGI in assay [7] is 17 µM; in [8], 19.6 µM; in assay [9], 20.1 µM; in [10] it was 21.8 µM.

For `O=C(Nc1ccc(S(=O)(=O)NC2CCCCCC2)cc1)C(c1ccccc1)S(=O)(=O)c1ccc(F)cc1` (configuration not stated), the GI50 in assay [1] was 0.318 µM; in assay [2] it was 0.182 µM; in [3], 0.084 µM; in [4], 0.261 µM; in [5], 0.371 µM; in assay [6], 0.217 µM. The GI50 in [7] was 0.335 µM; in [8] it was 0.202 µM; in [9] it was 0.577 µM; in assay [10], 0.35 µM. The TGI stood at 2.94 µM in assay [1]; 2.08 µM in assay [2]; 1.98 µM in assay [3]; 2.68 µM in [4]; 1.81 µM in assay [5]; 0.562 µM in assay [6]. Moreover, the TGI in assay [7] is 4.03 µM; in assay [8] it was 3.52 µM; in assay [9] it was over 100 µM; in assay [10] it was 1.94 µM.

Regarding `COc1cc(C2C(C#N)=C(N)Oc3cc4c(cc32)OCO4)cc2c1OCO2` (configuration not stated), the GI50 in [1] was 0.0926 µM; in [2], 0.446 µM; in assay [3] it was 0.276 µM; in assay [4] it was 0.362 µM; in assay [5], 0.599 µM; in assay [6], 0.146 µM. The GI50 in assay [7] was 0.439 µM; in assay [8] it was 0.653 µM; in assay [9], 0.318 µM; in [10], 0.774 µM. Also, the TGI in assay [1] was 2.72 µM; in assay [2] it was over 100 µM; in assay [3], over 100 µM; in assay [4] it was over 100 µM; in [5] it was over 100 µM; in assay [6], 0.546 µM. In addition, the TGI in assay [8], in assay [9] and in [10] was over 100 µM in each case.

Turning to `COc1cc(/C=C/C(=O)c2ccc(Nc3nc(Nc4ccccc4)nc(Nc4ccc(Cl)cc4)n3)cc2)cc(OC)c1OC`, the GI50 in [1] is 13.9 µM; in [2], 8.86 µM; in assay [3] it was 8.46 µM; in assay [4] it was over 32.5 µM; in assay [5] it was 20.9 µM; in [6], 5.09 µM. Further, the GI50 in [7] is over 32.5 µM; in [8] it was 2.46 µM; in [9], 4.12 µM; in [10], 18.5 µM. In addition, the TGI is over 32.5 µM in [1]; over 32.5 µM in assay [2]; over 32.5 µM in assay [3]; over 32.5 µM in assay [4]; over 32.5 µM in assay [5]; 25.3 µM in assay [6]. Besides, the TGI in assay [7], in assay [8], in assay [9] and in [10] was over 32.5 µM each time.

In the case of `Cc1ccc(-c2cc(/C=N/O)on2)cc1`, the GI50 in assay [1] was 62.4 µM; in assay [2] it was 64.6 µM; in assay [3] it was 65.7 µM; in assay [4] it was 68.7 µM; in assay [5], over 100 µM; in assay [6], over 100 µM. Moreover, the GI50 in assay [7] is over 100 µM; in [8], 36.4 µM; in [9], 46.9 µM; in assay [10] it was over 100 µM. The TGI in [1], in assay [2], in assay [3], in assay [4], in assay [5] and in [6] was over 100 µM each time. For the same compound, the TGI in assay [7], in assay [8], in assay [9] and in assay [10] was over 100 µM each time.

Consider `COc1ccc(NC(=O)O[C@H]2[C@H](O[C@H]3[C@@H](O)COC(O[C@H]4C[C@H]5[C@@H]6CC=C7C[C@@H](O)CC[C@]7(C)[C@H]6CC[C@]5(C)[C@H]4[C@H](C)C(=O)CCC(C)C)[C@@H]3OC(C)=O)OC[C@@H](O)[C@@H]2O)cc1` (some centres not stated), for which the GI50 in [1] was under 0.01 µM; in [2], 0.0735 µM; in [3], under 0.01 µM; in assay [4], 0.367 µM; in [5], 11.4 µM; in assay [6], under 0.01 µM. Moreover, the GI50 was 0.015 µM in assay [7], 0.024 µM in [8], under 0.01 µM in assay [9] and 0.318 µM in assay [10]. Besides, the TGI in [1] was 0.0759 µM; in assay [2], 1.23 µM; in assay [3], 0.0664 µM; in [4] it was 34.7 µM; in assay [5], over 100 µM; in assay [6] it was under 0.01 µM. The TGI in [7] came to 3.71 µM; in [8], 0.0978 µM; in assay [9] it was 2.25 µM; in [10] it was 19.2 µM.

With `O=C1c2ccccc2C(=O)c2sc(Nc3ccc(Cl)c(Cl)c3)nc21`, the TGI came out at 4.66 µM in assay [1]; 5.06 µM in assay [2]; 3.19 µM in [3]; 33.2 µM in assay [4]; 3.23 µM in assay [5]; 12.4 µM in assay [6]. In addition, the TGI in [7] worked out at 32.1 µM; in assay [8] it was 4.97 µM; in assay [9], 5.15 µM; in assay [10], 6.82 µM.

With `O=P1(O)c2ccccc2CS(=O)(=O)Cc2ccccc21`, the TGI in [1], in [2], in [3], in [4], in assay [5] and in assay [6] was over 100 µM in each case. Further, the TGI in assay [7], in [8], in assay [9] and in assay [10] was over 100 µM each time.

As to `C/C(=N\Nc1cccc(Cl)n1)c1ccccn1`, the GI50 is 0.508 µM in assay [1]; 0.363 µM in assay [2]; 0.614 µM in assay [3]; 0.692 µM in assay [4]; 0.598 µM in [5]; 0.982 µM in assay [6]. Further, the GI50 was 1.08 µM in assay [7], 0.466 µM in assay [8], 0.365 µM in [9] and 0.584 µM in [10]. In addition, the TGI in [1] is over 40.3 µM; in assay [2], over 100 µM; in assay [3] it was over 100 µM; in assay [4], over 100 µM; in [5], over 100 µM; in assay [6], 16.1 µM. The TGI is over 43.2 µM in assay [7], 4.33 µM in assay [8], over 25.2 µM in assay [9] and over 100 µM in assay [10].

With `CCOC(=O)C(Cc1ccc(OC)cc1)C(=O)OCC`, the GI50 was 2.53 µM in [1]; 3.77 µM in assay [2]; 2.65 µM in assay [4]; 5.77 µM in assay [5]; 2.61 µM in assay [6]; 10.7 µM in assay [7]. For the same compound, the GI50 in [8] was 5.63 µM; in assay [9], 3.18 µM; in [10], 7.87 µM. For the same compound, the TGI in [1] stood at 8.73 µM; in assay [2] it was 19.4 µM; in assay [4], 7.71 µM; in [5], 21.7 µM; in assay [6], 7.02 µM; in assay [7] it was 55.8 µM. Also, the TGI stood at 19.7 µM in [8], 28.2 µM in [9] and 27.3 µM in assay [10].
